Assay: Fatty acid composition of pig tissues (ham, loin, belly, skin) after feeding SDA ethyl ester diets, 35 day study
Type: in vivo, pigs
Protocol: A 35 day study was conducted to determine whether pigs fed a diet containing SDA could enhance tissues with improved fatty acid profiles including increased levels of SDA, EPA, and DHA.
Four test diets (Treatment 2, 3, 4, and 5) with SDA ethyl ester substituted for corn oil to provide 0.2, 0.4, 0.6 and 0.8% (w/w SDA active ingredient, as-is basis) were fed ad libitum to one pen of four pigs throughout the 35-day test period Table 4). All diets were fed in meal form. Treatment 6 was fed the same diet as Treatment 5, but for a duration of only 21 days.
All pigs were individually weighed at initiation of the acclimation and test period, and immediately prior to slaughter. Feed consumption per pen was recorded. Upon completion of the feeding period, pigs were slaughtered for tissue collection and carcass evaluation. Pigs were slaughtered using standard industry practices (electrical stunning, exsanguinations, scalding, dehairing and evisceration). Live weights prior to slaughter and hot carcass weights were recorded. The left side of each carcass was fabricated and samples were obtained from the loin (longissimus muscle), ham (semimembranosus muscle) and belly (a section from the center of the belly) for sensory evaluation, fatty acid, and proximate analysis. Prior to removing the sample for sensory and fatty and proximate analysis from the belly the firmness of the belly was evaluated using a flop test. At 24 hr postmortem fat thickness (10th rib), loin eye area (10th rib), visual color, firmness and marbling, Minolta color (L*a*b*), pH, and drip loss were measured.
In order to evaluate the fatty acid composition of pig tissues (loin, ham, skin, and belly), samples were stored at −80° C. until evaluation. After thawing, ˜22 g of fresh pig tissue was chopped into small pieces and thoroughly mixed before 10 g was sub sampled and lyophilized. Lyophilized samples were ground in 30 ml Sarstedt tubes with two ball bearings using a Mega Grinder. Ground samples (loin and ham: 50 mg; skin: 100 mg; belly: 150 mg; diet: 500 mg) were directly methylated with sulfuric acid in methanol (loin and ham: 1 mL; skin: 3 mL; belly: 10 mL; diet: 1.5 mL) sealed in the presence of butylated hydroxytoluene (50 mg BHT in 100 ml reagent) in reflux conditions of 90° C. Resultant fatty acid methyl esters (FAME's) were separated by capillary gas chromatography (GC) and detected by flame ionization detector (FID). The column used was a Supelco Omegawax 250 capillary column with dimensions of 30 m×0.25 mm×0.25 μm film thickness. The run time was 32 minutes. Peaks were identified based on their relative retention time compared to a FAME reference mixture. Quantification was achieved by using an internal standard (c15:0 triacylglyceride (TAG) for pig tissue samples and c17:0 TAG for diet samples). Results are reported as FA g/100 g fat with theoretical response correction.
For Table 6 below, each value represents g/100 g total fatty acids a mean of 4 samples (1 sample from each of 4 pigs) per treatment.

Compound: CC/C=C\C/C=C\C/C=C\C/C=C\CCCCC(=O)O [SDA, stearidonic acid]
- 18:4 n-3, ham (SDA 0.6%, 35 Day): 3.56c mg FA/100 g of fresh tissue
- 20:1 n-9, ham (SDA 0.6%, 35 Day): 13.3 mg FA/100 g of fresh tissue
- 20:2 n-6, ham (SDA 0.6%, 35 Day): 6.1b mg FA/100 g of fresh tissue
- 20:3 n-3, ham (SDA 0.6%, 35 Day): 0.87 mg FA/100 g of fresh tissue
- 20:4 n-3, ham (SDA 0.6%, 35 Day): 5.85c mg FA/100 g of fresh tissue
- 20:4 n-6, ham (SDA 0.6%, 35 Day): 55.3 mg FA/100 g of fresh tissue
- 20:5 n-3, ham (SDA 0.6%, 35 Day): 11.32bc mg FA/100 g of fresh tissue
- 22:1 n-11, ham (SDA 0.6%, 35 Day): 0.58a mg FA/100 g of fresh tissue
- 22:5 n-3, ham (SDA 0.6%, 35 Day): 14.4bc mg FA/100 g of fresh tissue
- 22:6 n-3, ham (SDA 0.6%, 35 Day): 2.14 mg FA/100 g of fresh tissue
- Lipid content, ham (SDA 0.6%, 35 Day): 2.24%
- Total PUFA, ham (SDA 0.6%, 35 Day): 337.7 mg FA/100 g of fresh tissue
- Total monoenes, ham (SDA 0.6%, 35 Day): 1039 mg FA/100 g of fresh tissue
- Total n-3, ham (SDA 0.6%, 35 Day): 43.1b mg FA/100 g of fresh tissue
- Total n-6, ham (SDA 0.6%, 35 Day): 294.5 mg FA/100 g of fresh tissue
- Total saturates, ham (SDA 0.6%, 35 Day): 765.2 mg FA/100 g of fresh tissue
- n-3/n-6, ham (SDA 0.6%, 35 Day): 0.147
- 12:0, ham (SDA 0.8%, 21 Day): 2.2 mg FA/100 g of fresh tissue
- 14:0, ham (SDA 0.8%, 21 Day): 36.8 mg FA/100 g of fresh tissue
- 16:0, ham (SDA 0.8%, 21 Day): 701.1 mg FA/100 g of fresh tissue
- 16:1 n-7, ham (SDA 0.8%, 21 Day): 108.3 mg FA/100 g of fresh tissue
- 18:0, ham (SDA 0.8%, 21 Day): 358.1 mg FA/100 g of fresh tissue
- 18:1 n-7, ham (SDA 0.8%, 21 Day): 138.1 mg FA/100 g of fresh tissue
- 18:1 n-9, ham (SDA 0.8%, 21 Day): 1266.2 mg FA/100 g of fresh tissue
- 18:2 n-6, ham (SDA 0.8%, 21 Day): 290.7 mg FA/100 g of fresh tissue
- 18:3 n-3, ham (SDA 0.8%, 21 Day): 8.66 mg FA/100 g of fresh tissue
- 18:4 n-3, ham (SDA 0.8%, 21 Day): 3.67c mg FA/100 g of fresh tissue
- 20:1 n-9, ham (SDA 0.8%, 21 Day): 21.8 mg FA/100 g of fresh tissue
- 20:2 n-6, ham (SDA 0.8%, 21 Day): 11.3a mg FA/100 g of fresh tissue
- 20:3 n-3, ham (SDA 0.8%, 21 Day): 1.33 mg FA/100 g of fresh tissue
- 20:4 n-3, ham (SDA 0.8%, 21 Day): 7.23c mg FA/100 g of fresh tissue
- 20:4 n-6, ham (SDA 0.8%, 21 Day): 63.4 mg FA/100 g of fresh tissue
- 20:5 n-3, ham (SDA 0.8%, 21 Day): 9.68b mg FA/100 g of fresh tissue
- 22:1 n-11, ham (SDA 0.8%, 21 Day): 0.95ab mg FA/100 g of fresh tissue
- 22:5 n-3, ham (SDA 0.8%, 21 Day): 13.2bc mg FA/100 g of fresh tissue
- 22:6 n-3, ham (SDA 0.8%, 21 Day): 1.85 mg FA/100 g of fresh tissue
- Lipid content, ham (SDA 0.8%, 21 Day): 3.23%
- Total PUFA, ham (SDA 0.8%, 21 Day): 433.7 mg FA/100 g of fresh tissue
- Total monoenes, ham (SDA 0.8%, 21 Day): 1546 mg FA/100 g of fresh tissue
- Total n-3, ham (SDA 0.8%, 21 Day): 45.6b mg FA/100 g of fresh tissue
- Total n-6, ham (SDA 0.8%, 21 Day): 388.1 mg FA/100 g of fresh tissue
- Total saturates, ham (SDA 0.8%, 21 Day): 1104.4 mg FA/100 g of fresh tissue
- n-3/n-6, ham (SDA 0.8%, 21 Day): 0.121c
- 12:0, ham (SDA 0.8%, 35 Day): 1.04 mg FA/100 g of fresh tissue
- 14:0, ham (SDA 0.8%, 35 Day): 18.3 mg FA/100 g of fresh tissue
- 16:0, ham (SDA 0.8%, 35 Day): 386.7 mg FA/100 g of fresh tissue
- 16:1 n-7, ham (SDA 0.8%, 35 Day): 52.8 mg FA/100 g of fresh tissue
- 18:0, ham (SDA 0.8%, 35 Day): 206.6 mg FA/100 g of fresh tissue
- 18:1 n-7, ham (SDA 0.8%, 35 Day): 81.5 mg FA/100 g of fresh tissue
- 18:1 n-9, ham (SDA 0.8%, 35 Day): 685.9 mg FA/100 g of fresh tissue
- 18:2 n-6, ham (SDA 0.8%, 35 Day): 208.6 mg FA/100 g of fresh tissue
- 18:3 n-3, ham (SDA 0.8%, 35 Day): 4.70 mg FA/100 g of fresh tissue
- 18:4 n-3, ham (SDA 0.8%, 35 Day): 4.09c mg FA/100 g of fresh tissue
- 20:1 n-9, ham (SDA 0.8%, 35 Day): 9.9 mg FA/100 g of fresh tissue
- 20:2 n-6, ham (SDA 0.8%, 35 Day): 5.1b mg FA/100 g of fresh tissue
- 20:3 n-3, ham (SDA 0.8%, 35 Day): 0.62 mg FA/100 g of fresh tissue
- 20:4 n-3, ham (SDA 0.8%, 35 Day): 5.36bc mg FA/100 g of fresh tissue
- 20:4 n-6, ham (SDA 0.8%, 35 Day): 54.2 mg FA/100 g of fresh tissue
- 20:5 n-3, ham (SDA 0.8%, 35 Day): 14.69c mg FA/100 g of fresh tissue
- 22:1 n-11, ham (SDA 0.8%, 35 Day): 0.57a mg FA/100 g of fresh tissue
- 22:5 n-3, ham (SDA 0.8%, 35 Day): 14.2bc mg FA/100 g of fresh tissue
- 22:6 n-3, ham (SDA 0.8%, 35 Day): 2.35 mg FA/100 g of fresh tissue
- Lipid content, ham (SDA 0.8%, 35 Day): 1.88%
- Total PUFA, ham (SDA 0.8%, 35 Day): 330.6 mg FA/100 g of fresh tissue
- Total monoenes, ham (SDA 0.8%, 35 Day): 846 mg FA/100 g of fresh tissue
- Total n-3, ham (SDA 0.8%, 35 Day): 46.0b mg FA/100 g of fresh tissue
- Total n-6, ham (SDA 0.8%, 35 Day): 284.6 mg FA/100 g of fresh tissue
- Total saturates, ham (SDA 0.8%, 35 Day): 616.6 mg FA/100 g of fresh tissue
- n-3/n-6, ham (SDA 0.8%, 35 Day): 0.162
- Omega 3 fatty acid enrichment in belly, loin, ham and skin tissues as compared to the control (SDA fed for the last 35 days prior to slaughter): significant increase
- More DHA deposition with 35 days than with 21 days of SDA consumption (Treatment 5 (35 day) vs Treatment six (21 day), 0.8% SDA, ham): about 27%

— patent publication US20090197955A1, “METHODS OF IMPROVING DHA DEPOSITION AND RELATED FUNCTION AND/OR DEVELOPMENT” (Monsanto Company, priority 2008, published 2009)
